According to patent US12679836B2, “4H-pyrrolo[3,2-c]pyridin-4-one compounds” (Bayer Aktiengesellschaft, priority 2019, dated 2026):
pIC50: −log10 of the molar value. Where “and” joins values, the source holds several entries; their conditions need not be identical. Equal values may be shown once.

What was measured:
Assay type in all cases: cell-based
[1] = tested on: HCC-827 cells (EGFRex19del); test: HCC-827 proliferation assay (Cell Titer Glo); settings: Homo sapiens, HCC827, 72 h
Description: Cellular Data Description (HCC-827 Cells, EGFRex19del)
HCC-827 cells were purchased from ATCC. […] cells per well were seeded in growth medium (RPM11640, 10% FCS) in a 384-well plate (CORNING #3571). Seed reference plate for time zero determination on the same day. All plates were incubated overnight at 37° C. After 24 hours, test compound were added in 7-step dilution using HP Compound printer and incubated at 37° C. for 72 h. After 3 days, 30 μL/well CTG solution (Promega Cell Titer Glo solution; catalog # G755B and G756B) were added to each well, incubated for 30 minutes and the plate were read on PheraStar. Proliferation is calculated after subtracting time zero luminescence values from day 4 values and comparing to untreated wells.
The IC50 values were determined using the four parameter fit.

Ba/F3-EGFR-insSVD cells = Ba/F3-EGFR-insSVD cells (Homo sapiens, UniProt P00533, DUP768-770, cells depend on it); test: Ba/F3 cell survival assay (Cell Titer-Glo), EGFR-insSVD; settings: without IL-3, with 10 ng/mL EGF, 48 h; read-out: BA/F3 (insSVD) IC50
Chain of Ba/F3-EGFR-insSVD cells (P00533 with tags, fused parts or gaps DUP768-770): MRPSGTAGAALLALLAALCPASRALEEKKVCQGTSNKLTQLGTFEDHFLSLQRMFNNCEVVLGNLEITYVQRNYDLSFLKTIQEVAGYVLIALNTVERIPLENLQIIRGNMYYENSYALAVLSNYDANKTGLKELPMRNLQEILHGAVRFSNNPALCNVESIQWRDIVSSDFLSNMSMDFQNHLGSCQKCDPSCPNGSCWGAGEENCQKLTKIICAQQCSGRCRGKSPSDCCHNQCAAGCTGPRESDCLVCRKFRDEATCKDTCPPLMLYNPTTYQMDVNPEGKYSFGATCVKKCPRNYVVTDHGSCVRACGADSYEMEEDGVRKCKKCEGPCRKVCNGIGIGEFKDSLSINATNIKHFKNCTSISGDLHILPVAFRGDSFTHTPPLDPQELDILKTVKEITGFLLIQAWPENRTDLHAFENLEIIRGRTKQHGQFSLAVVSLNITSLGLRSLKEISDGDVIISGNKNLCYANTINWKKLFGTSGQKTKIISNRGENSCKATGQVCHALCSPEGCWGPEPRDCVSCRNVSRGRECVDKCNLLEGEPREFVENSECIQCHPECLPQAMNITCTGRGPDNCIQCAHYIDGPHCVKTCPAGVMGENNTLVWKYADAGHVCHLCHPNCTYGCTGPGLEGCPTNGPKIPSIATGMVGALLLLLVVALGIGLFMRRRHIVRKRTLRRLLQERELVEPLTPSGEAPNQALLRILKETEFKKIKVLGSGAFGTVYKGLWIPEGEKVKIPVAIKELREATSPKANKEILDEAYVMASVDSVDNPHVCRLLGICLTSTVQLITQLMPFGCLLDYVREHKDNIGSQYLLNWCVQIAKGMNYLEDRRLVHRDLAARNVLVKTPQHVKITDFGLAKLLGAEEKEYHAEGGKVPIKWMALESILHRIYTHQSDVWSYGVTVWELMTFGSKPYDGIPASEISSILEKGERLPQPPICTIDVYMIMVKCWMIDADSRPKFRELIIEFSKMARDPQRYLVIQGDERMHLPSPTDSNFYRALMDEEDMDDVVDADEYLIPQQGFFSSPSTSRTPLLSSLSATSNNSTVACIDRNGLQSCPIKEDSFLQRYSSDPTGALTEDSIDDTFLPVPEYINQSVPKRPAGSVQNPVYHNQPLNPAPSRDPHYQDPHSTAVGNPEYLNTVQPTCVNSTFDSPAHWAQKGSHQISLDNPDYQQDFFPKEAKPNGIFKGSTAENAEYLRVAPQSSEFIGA
Summary of the method: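 Ba/F3 cells stably expressing WT EGFR or EGFR-insSVD from retroviral transduction were grown without IL-3 on 10 ng/mL EGF. Cells were plated at 4000 cells/well, treated with compound for 48 h at 37° C, and viability was read by CellTiter-Glo luminescence.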

[2] = biological target: Ba/F3-EGFR-E746_A750del C797S cells (Homo sapiens, UniProt P00533, DEL746-750/C797S, cells depend on it); test: Ba/F3 cell survival assay, EGFR E746_A750del C797S; settings: without IL-3, without EGF, 48 h; read-out: BA/F3 (EGFR E746_A750del C797S) IC50
Chain of Ba/F3-EGFR-E746_A750del C797S cells (P00533 with tags, fused parts or gaps DEL746-750/C797S): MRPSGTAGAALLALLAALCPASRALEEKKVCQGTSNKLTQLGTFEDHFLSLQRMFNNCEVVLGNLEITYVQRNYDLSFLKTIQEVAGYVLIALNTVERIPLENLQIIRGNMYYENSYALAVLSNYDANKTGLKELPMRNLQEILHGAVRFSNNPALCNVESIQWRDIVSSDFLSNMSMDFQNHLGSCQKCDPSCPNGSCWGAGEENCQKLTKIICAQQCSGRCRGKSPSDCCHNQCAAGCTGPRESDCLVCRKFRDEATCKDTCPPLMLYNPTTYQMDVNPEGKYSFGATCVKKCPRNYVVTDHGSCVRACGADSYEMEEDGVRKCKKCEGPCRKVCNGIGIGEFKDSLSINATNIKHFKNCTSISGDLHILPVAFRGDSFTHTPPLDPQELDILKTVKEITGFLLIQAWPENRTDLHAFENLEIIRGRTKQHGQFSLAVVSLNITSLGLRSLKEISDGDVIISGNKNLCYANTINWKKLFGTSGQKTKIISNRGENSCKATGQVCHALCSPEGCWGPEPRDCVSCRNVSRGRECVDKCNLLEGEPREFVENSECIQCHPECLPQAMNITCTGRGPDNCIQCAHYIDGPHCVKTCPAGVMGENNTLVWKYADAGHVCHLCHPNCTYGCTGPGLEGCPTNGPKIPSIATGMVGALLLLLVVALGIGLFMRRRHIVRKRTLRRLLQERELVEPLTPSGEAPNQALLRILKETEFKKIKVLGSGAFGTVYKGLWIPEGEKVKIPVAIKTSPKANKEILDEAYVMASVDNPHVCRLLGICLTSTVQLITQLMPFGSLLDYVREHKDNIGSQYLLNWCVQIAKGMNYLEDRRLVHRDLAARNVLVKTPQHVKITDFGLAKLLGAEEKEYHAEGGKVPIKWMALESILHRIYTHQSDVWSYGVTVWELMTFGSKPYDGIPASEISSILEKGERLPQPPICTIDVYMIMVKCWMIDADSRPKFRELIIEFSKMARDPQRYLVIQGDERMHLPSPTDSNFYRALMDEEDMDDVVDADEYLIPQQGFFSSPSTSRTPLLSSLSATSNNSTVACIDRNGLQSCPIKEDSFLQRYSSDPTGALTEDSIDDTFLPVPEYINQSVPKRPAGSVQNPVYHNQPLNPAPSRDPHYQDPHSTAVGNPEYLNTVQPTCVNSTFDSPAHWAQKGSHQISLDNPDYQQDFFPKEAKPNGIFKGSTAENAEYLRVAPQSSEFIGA
Description: (§1) 293T cells from ATCC were transfected with pBABEpuro expression constructs for mutant EGFR (V769_D770insASV, D770_N771insNPG, N771_P772insH, H773_V774insNPH, E746_A750del, L858R, D770_N771insSVD C797S, E746_A750del C797S, L858R C797S, L861Q) or mutant ERBB2 (A775_G776insYVMA) and pCL-Eco packaging vector using Fugene-6 transfection reagent from Promega. Plates were incubated at 37° C. for 48 h. Retrovirus was harvested by filtering the media supernatant through a 0.45 μm filter.
(§2) Ba/F3 cells purchased from DSMZ were grown in RPMI+10% FBS+10 ng/mL IL-3 and infected with filtered retroviral supernatant at a 1:2 dilution. Polybrene was added to a concentration of 8 μg/mL, plates were spun for 90 min, and incubated overnight at 37° C. 2 μg/mL puromycin was added to the infected cells 24 h after infection and cells were continually grown in the presence of puromycin and 10 ng/mL IL-3. Following stably expressing Ba/F3 cell lines were generated: Ba/F3-EGFR-V769_D770insASV, Ba/F3-EGFR-D770_N771insNPG, Ba/F3-EGFR-N771_P772insH, Ba/F3-EGFR-H773_V774insNPH, Ba/F3-EGFR-E746_A750del, Ba/F3-EGFR-L858R, Ba/F3-EGFR-D770_N771 insSVD C797S, Ba/F3-EGFR-E746_A750del C797S, Ba/F3-EGFR-L858R C797S, Ba/F3-EGFR L861Q and Ba/F3-ERBB2-A775_G776insYVMA (Ba/F3-vector-control).
(§3) For cell survival assays, Ba/F3 cells were grown to a density of 1-2 million cells per mL, spun down and resuspended in media without IL-3, and replated at a concentration 200,000-500,000 cells per mL. The cells ectopically expressing WT EGFR plated with 10 ng/mL Millipore Culture grade EGF and Ba/F3 cells containing mutant EGFR or Mutant ERBB2 were cultivated without EGF. The cells ectopically expressing pBABEpuro empty vector were plated with 10 ng/mL IL-3.
(§4) 2 days later, cells were plated in 50 μL in a 384 well plate at a concentration of 4000 cells per well for cells assayed in the absence of IL-3 and 2000 cells per well for cells assayed in the presence of IL-3. 100 nL of compound was added to each well using a 100 nL pin head, and plates were incubated at 37° C. for 48 h.
(§5) Cell viability was measured by adding 20 μL of Cell Titer-Glo Luminescent Cell Viability Reagent diluted 1:3 in PBS. Plates were sealed with Perkin Elmer Top-Seal, inverted several times to mix, and immediately centrifuged at 1000 rpm for 2 min. Plates were incubated in low light conditions for 8-10 min and luminescence was measured.

Ba/F3-EGFR L861Q cells = Ba/F3-EGFR L861Q cells (Homo sapiens, UniProt P00533, L861Q, cells depend on it); test: Ba/F3 cell survival assay, EGFR L861Q; settings: without IL-3, without EGF, 48 h; read-out: BA/F3 (EGFR L861Q) IC50
Chain of Ba/F3-EGFR L861Q cells (P00533 whole entry L861Q): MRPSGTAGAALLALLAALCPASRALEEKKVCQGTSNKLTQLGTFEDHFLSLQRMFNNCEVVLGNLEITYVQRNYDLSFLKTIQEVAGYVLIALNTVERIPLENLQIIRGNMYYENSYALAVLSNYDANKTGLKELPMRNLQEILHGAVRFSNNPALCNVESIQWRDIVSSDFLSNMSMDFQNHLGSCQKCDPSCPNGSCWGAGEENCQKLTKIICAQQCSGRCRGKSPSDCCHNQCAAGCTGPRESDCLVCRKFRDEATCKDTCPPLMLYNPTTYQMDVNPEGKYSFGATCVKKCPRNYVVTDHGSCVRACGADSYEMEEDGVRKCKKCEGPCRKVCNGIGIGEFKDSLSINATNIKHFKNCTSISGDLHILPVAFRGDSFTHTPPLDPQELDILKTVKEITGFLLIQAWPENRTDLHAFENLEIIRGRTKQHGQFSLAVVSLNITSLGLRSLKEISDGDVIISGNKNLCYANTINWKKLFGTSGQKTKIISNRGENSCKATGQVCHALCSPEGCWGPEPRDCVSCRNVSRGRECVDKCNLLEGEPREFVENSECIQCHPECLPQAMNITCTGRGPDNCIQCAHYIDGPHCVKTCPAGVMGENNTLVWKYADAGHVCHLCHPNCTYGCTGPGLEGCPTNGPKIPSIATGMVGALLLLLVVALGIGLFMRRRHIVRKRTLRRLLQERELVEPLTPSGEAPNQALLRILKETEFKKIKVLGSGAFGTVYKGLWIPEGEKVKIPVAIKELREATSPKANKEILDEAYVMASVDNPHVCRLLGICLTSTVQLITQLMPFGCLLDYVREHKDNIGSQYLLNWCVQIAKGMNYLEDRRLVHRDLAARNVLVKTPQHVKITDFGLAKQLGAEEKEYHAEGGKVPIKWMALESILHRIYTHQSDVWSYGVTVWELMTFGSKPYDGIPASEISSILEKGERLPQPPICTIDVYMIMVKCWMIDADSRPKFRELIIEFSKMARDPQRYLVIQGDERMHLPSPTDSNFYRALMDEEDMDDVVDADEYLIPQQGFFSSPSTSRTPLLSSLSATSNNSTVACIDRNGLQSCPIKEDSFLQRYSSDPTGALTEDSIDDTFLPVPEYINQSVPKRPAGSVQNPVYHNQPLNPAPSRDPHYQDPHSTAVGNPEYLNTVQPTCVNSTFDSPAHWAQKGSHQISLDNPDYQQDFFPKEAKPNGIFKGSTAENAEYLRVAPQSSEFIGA
Description: as §1, §2, §3, §4, §5

Row | pIC50 [1] | Structure (SMILES) | GI50 (Ba/F3-EGFR-insSVD cells) [nM] | GI50 [2] | GI50 (Ba/F3-EGFR L861Q cells) [nM]
1 | > 8.52 | COc1c(F)cccc1Nc1c(-c2ccncc2OC[C@@H]2COCCN2C)[nH]c2c1C(=O)NCC2 [Example 20, 3-(3-fluoro-2-methoxyanilino)-2-(3-{[(3S)-4-methylmorpholin-3-yl]methoxy}pyridin-4-yl)-1,5,6,7-tetrahydro-4H-pyrrolo[3,2-c]pyridin-4-one] | 8.25 | 0.349 nM | 
2 | > 8.52 | Cc1c(Cl)cccc1Nc1c(-c2ccncc2OC[C@H]2COCCO2)[nH]c2c1C(=O)NCC2 (single isomer, unassigned) [Example 50] | 8.82 | 0.348 nM | 24
3 | > 8.52 | COc1c(Cl)cccc1Nc1c(-c2ccncc2OCC2COC(C)(C)CO2)[nH]c2c1C(=O)NCC2 (single isomer, unassigned) [Example 32, 3-(3-chloro-2-methoxyanilino)-2-{3-[(5,5-dimethyl-1,4-dioxan-2-yl)methoxy]pyridin-4-yl}-1,5,6,7-tetrahydro-4H-pyrrolo[3,2-c]pyridin-4-one] |  | 0.511 nM | 17.4
4 | > 8.52 | Cc1c(Cl)cccc1Nc1c(-c2ccncc2OC[C@@H]2CN(C)CCO2)[nH]c2c1C(=O)NCC2 [Example 42, 3-(3-chloro-2-methylanilino)-2-(3-{[(2S)-4-methylmorpholin-2-yl]methoxy}pyridin-4-yl)-1,5,6,7-tetrahydro-4H-pyrrolo[3,2-c]pyridin-4-one] | 19.8 | 0.494 nM | 18.8
5 | > 8.52 | COc1c(Cl)cccc1Nc1c(-c2ccncc2OC[C@@H]2COCCO2)[nH]c2c1C(=O)NCC2 (single isomer, unassigned) [Example 2] | 7.12 | 0.22 nM | 14.8
6 | > 8.52 | Cc1c(F)cccc1Nc1c(-c2ccncc2OCC2COCCO2)[nH]c2c1C(=O)NCC2 (single isomer, unassigned) [Example 48, 2-[3-(1,4-dioxan-2-ylmethoxy)-4-pyridyl]-3-(3-fluoro-2-methyl-anilino)-1,5,6,7-tetrahydropyrrolo[3,2-c]pyridin-4-one] | 18.8 | 0.4 nM and 0.776 nM | 39.7
7 | > 8.52 | COc1c(Cl)cccc1Nc1c(-c2ccncc2OC[C@@H]2COCCN2C)[nH]c2c1C(=O)NCC2 [Example 21, 3-(3-chloro-2-methoxyanilino)-2-(3-{[(3S)-4-methylmorpholin-3-yl]methoxy}pyridin-4-yl)-1,5,6,7-tetrahydro-4H-pyrrolo[3,2-c]pyridin-4-one] | 3.49 | 0.259 nM | 7.34
8 | > 8.52 | O=C1NCCc2[nH]c(-c3ccncc3OCC3COCCO3)c(Nc3cccc(Cl)c3Cl)c21 (single isomer, unassigned) [Example 8, 3-(2,3-dichloroanilino)-2-{3-[(1,4-dioxan-2-yl)methoxy]pyridin-4-yl}-1,5,6,7-tetrahydro-4H-pyrrolo[3,2-c]pyridin-4-one] | 8.18 | 0.247 nM | 13.7
9 |  | COc1c(F)cccc1Nc1c(-c2ccncc2OCC2COCCO2)[nH]c2c1C(=O)NCC2 (single isomer, unassigned) [Example 5, 2-{3-[(1,4-dioxan-2-yl)methoxy]pyridin-4-yl}-3-(3-fluoro-2-methoxyanilino)-1,5,6,7-tetrahydro-4H-pyrrolo[3,2-c]pyridin-4-one] | 9.73 | 0.668 nM | 30.9
10 | > 8.52 | COc1c(F)cccc1Nc1c(-c2ccncc2OCC2CN(C)CCO2)[nH]c2c1C(=O)NCC2 (single isomer, unassigned) [Example 14, 3-(3-fluoro-2-methoxyanilino)-2-{3-[(4-methylmorpholin-2-yl)methoxy]pyridin-4-yl}-1,5,6,7-tetrahydro-4H-pyrrolo[3,2-c]pyridin-4-one] | 10.5 | 0.379 nM | 20.1
11 | > 8.52 | Cc1c(Cl)cccc1Nc1c(-c2ccncc2OCC2COC(C)(C)CO2)[nH]c2c1C(=O)NCC2 (single isomer, unassigned) [Example 46, 3-(3-chloro-2-methyl-anilino)-2-[3-[(5,5-dimethyl-1,4-dioxan-2-yl)methoxy]-4-pyridyl]-1,5,6,7-tetrahydropyrrolo[3,2-c]pyridin-4-one] | 10.1 |  | 15.8
12 | > 8.52 | CCc1c(Cl)cccc1Nc1c(-c2ccncc2OC[C@@H]2CN(C)CCO2)[nH]c2c1C(=O)NCC2 [Example 56, 3-(3-chloro-2-ethylanilino)-2-(3-{[(2S)-4-methylmorpholin-2-yl]methoxy}pyridin-4-yl)-1,5,6,7-tetrahydro-4H-pyrrolo[3,2-c]pyridin-4-one] | 11.9 | 0.423 nM | 29.5
